Assay results as given in patent US20240115547A1, “PSYCHOTROPIC AGENTS AND USES THEREOF” (LB PHARMACEUTICALS INC., priority 2021, published 2024).

Assays:
[1] = Demethylation of LB-102 to amisulpride in preclinical animal models; type: in vivo
dopamine D2/D3 = assay: D2/D3 RO by dynamic 11C raclopride PET after oral LB-102 in healthy volunteers (Example 1); type: in vivo, human
[2] = 50 mg LB102 oral, 2.5 h after admin
[3] = 50 mg LB102 oral, 7.5 h after admin
[4] = 50 mg LB102 oral, 23.5 h after admin
[5] = 100 mg LB102 oral, 2.5 h after admin
[6] = 100 mg LB102 oral, 7.5 h after admin
[7] = 100 mg LB102 oral, 23.5 h after admin

## CCN1CCCC1CNC(=O)c1cc(S(=O)(=O)CC)c(NC)cc1OC (stereo not drawn) [LB-102]
[1]
  demethylated to amisulpride: up to 50%
Dopamine D2/D3; [2]
  Caudate % RO: 26%
  Putamen % RO: 22%
Dopamine D2/D3; [3]
  Caudate % RO: 43%
  Putamen % RO: 36%
Dopamine D2/D3; [4]
  Caudate % RO: 50%
  Putamen % RO: 39%
Dopamine D2/D3; [5]
  Caudate % RO: 48%
  Putamen % RO: 42%
Dopamine D2/D3; [6]
  Caudate % RO: 77%
  Putamen % RO: 71%
Dopamine D2/D3; [7]
  Caudate % RO: 74%
  Putamen % RO: 67%
Dopamine D2/D3; single oral dose of 50 mg, human subjects (FIG. 1A)
  dopamine D2/D3 RO in caudate/putamen: about 50%
Dopamine D2/D3; single oral dose of 100 mg, human subjects (FIG. 1B)
  dopamine D2/D3 RO in caudate/putamen: ~75%
